Results from patent publication US20050164983A1, “Carboxyl-reduced derivatives of dermatan sulfate, preparation thereof, use thereof as a medicinal product and the pharmaceutical compositions containing them” (Aventis Pharma S.A., priority 2003, published 2005).

Legend:
[1] = target: aggrecanase; assay: Effect on the aggrecanase in synovial fluids or on preparations of recombinant ADAMTS protein (Agg1mut substrate, BC-3 ELISA); assay type: biochemical; conditions: for Estimated IC50: aggrecanase, substrate conversion
Description: Effect of the carboxyl-reduced derivatives according to the invention on the aggrecanase in synovial fluids or on preparations of recombinant ADAMTS protein.
The analysis is carried out on 96-well plates. Before the analysis, serial dilutions of the assay compounds are prepared in an aqueous solution.
In each well, a fixed volume of synovial fluid or aggrecanase activity generating a known increase, between 1.0 and 1.4 absorbance units (405 nm), under the conditions of the analysis, is mixed with 3 μl of solution of compound from the respective dilution step. Dulbecco's modified Eagle's medium (DMEM) is added to each well to give a final volume of 300 μl. The plate is then incubated for 1 hour at 37° C. in a carbon dioxide atmosphere.
Preparation of the analytical plate:
In a first step, the microplate is coated with 100 μl per well of a commercial goat anti-mouse IgG antibody for 1 hour at ambient temperature (5 μg/ml in a phosphate buffered saline solution, pH 7.4 [PBS buffer]). After washing with the PBS buffer containing 0.1% of Tween-20 (washing buffer), the wells are blocked by means of a step consisting of a one hour incubation with 100 μl per well of 5% bovine serum albumin in a PBS buffer containing 0.05% of Tween-20.
After another rinse of the analytical plate with the washing buffer, the complete set of mixtures originating from the preceding digestion is transferred to this plate, well by well, and incubated at ambient temperature for one hour. The plate is again washed as above. Next, 100 μl of the second antibody (anti-human IgG antibody labeled with peroxidase, 1:1000 in PBS containing 0.5% of BSA and 0.05% of Tween-20) are added to each well, with subsequent incubation at ambient temperature again for one hour. […] The measurement is carried out by means of the screen mode using detection at 405 nm relative to a reference filter (620 nm) with automatic readings at 5-second intervals. The development is stopped as soon as the maximum signal (405 nm) in the absorbance range of 1.0 to 1.4 is reached.

[2] = target: T1, human neutrophil elastase (Homo sapiens, UniProt P08246); assay: Inhibitory activity on human neutrophil elastase; assay type: biochemical; conditions: 15 min incubation
T1 construct: purchased Sigma E8140
T1 sequence (P08246 30-267): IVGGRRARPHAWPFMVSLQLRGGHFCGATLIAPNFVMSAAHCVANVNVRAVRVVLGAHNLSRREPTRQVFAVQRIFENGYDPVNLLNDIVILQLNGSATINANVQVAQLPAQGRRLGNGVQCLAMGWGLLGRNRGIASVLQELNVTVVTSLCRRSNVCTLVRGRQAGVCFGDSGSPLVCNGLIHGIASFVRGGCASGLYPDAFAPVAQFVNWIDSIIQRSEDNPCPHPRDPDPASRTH
Description: Effects of the Carboxyl-reduced Derivatives According to the Invention on Human Neutrophil Elastase
A commercially available enzyme (for example, human neutrophil elastase, Sigma No. E8140) is reconstituted in aliquots of 0.1 mg per vial with 0.276 ml of 50 mM sodium acetate buffer, pH 5.5, containing 200 mM NaCl (stock solution of the enzyme); 11 μl of this stock solution are diluted with 1.1 ml of the above HEPES buffer (enzyme assay solution).
The substrate solution is prepared by dissolving 118 mg of methoxy-succinyl-L-Ala-L-Ala-L-Pro-L-Val-p-nitro-anilide in 1 ml of DMSO (stock solution, for example Sigma No. M4765). In view of the application in the analysis, 9 μl of stock solution are then diluted in 1.19 ml of H2O.
Serial dilutions of the assay compounds are prepared in 100 mM of HEPES buffer containing 500 mM of NaCl. The analysis is carried out on colorless 96-well polystyrene microplates (for example, Corning Costar, No. 3695.
10 μl of enzyme assay solution are mixed with 10 μl of the respective solution of diluted compound and 10 μl of the substrate solution. After incubation for 15 min, the cleavage of the substrate is read as increase in absorbance at 405 nm.

[3] = target: T2, bovine factor Xa (Bos taurus, UniProt P00743); assay: Inhibition of factor Xa (chromogenic substrate S-2765, with human antithrombin III); assay type: biochemical; conditions: calibrated against Enoxaparin
T2 sequence (P01008 33-464 partner): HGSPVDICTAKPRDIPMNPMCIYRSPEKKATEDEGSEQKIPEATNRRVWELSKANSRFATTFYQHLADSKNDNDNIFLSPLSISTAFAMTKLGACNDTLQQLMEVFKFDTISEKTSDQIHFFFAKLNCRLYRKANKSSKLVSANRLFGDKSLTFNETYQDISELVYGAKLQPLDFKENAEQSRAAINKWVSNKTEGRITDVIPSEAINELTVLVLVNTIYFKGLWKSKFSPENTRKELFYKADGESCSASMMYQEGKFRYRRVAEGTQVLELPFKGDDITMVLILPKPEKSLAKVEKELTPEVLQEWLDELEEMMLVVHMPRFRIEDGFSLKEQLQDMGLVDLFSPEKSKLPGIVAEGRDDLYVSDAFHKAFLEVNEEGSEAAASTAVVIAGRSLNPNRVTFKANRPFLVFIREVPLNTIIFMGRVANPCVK
T2 sequence (P00743 234-492 limits assumed): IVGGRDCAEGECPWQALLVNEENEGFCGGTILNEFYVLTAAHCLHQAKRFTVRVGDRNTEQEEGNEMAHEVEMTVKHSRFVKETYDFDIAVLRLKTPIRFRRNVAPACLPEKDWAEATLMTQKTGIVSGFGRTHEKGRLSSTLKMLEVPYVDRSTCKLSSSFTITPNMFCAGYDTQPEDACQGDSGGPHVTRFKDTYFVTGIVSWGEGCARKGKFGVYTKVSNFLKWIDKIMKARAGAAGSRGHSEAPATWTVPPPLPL
Description: For the calibration, a standard sample of low molecular weight heparin (Enoxaparin) was used as reference.
The serial dilutions of the assay compound are prepared in a 0.046 M Tris buffer, pH 8.4, containing 0.15 M NaCl, 0.007 M EDTA, 0.1% of Tween 80 and 0.12 IU/ml of human antithrombin III. The samples of 50 μl of the respective dilutions are incubated with 50 μl of bovine factor Xa (13.6 U/ml) at 37° C. for 80 seconds. Next, 50 μl of chromogenic substrate, 1.1 mM S-2765, are added. The absorbance at 405 nm is measured in a photometer. The activity of the deblocked factor Xa is indicated by the emission of p-nitroaniline from the substrate.

[4] = target: T2, bovine factor Xa; conditions: reference low-molecular weight heparin used for calibration; cited from earlier work
[5] = conc. of glycosaminoglycan 0.0001 μg/ml
[6] = conc. of glycosaminoglycan 0.001 μg/ml
[7] = conc. of glycosaminoglycan 0.01 μg/ml
[8] = conc. of glycosaminoglycan 0.1 μg/ml

| Estimated IC50 [1] | % Conversion [1, 5] | % Conversion [1, 6] | % Conversion [1, 7] | % Conversion [1, 8] | % Conversion ([1]; conc. of glycosaminoglycan 1.0 μg/ml) | IC50 [2] | Anti-factor Xa activity [3] | Substance | Anti-factor Xa activity of the reference standard [4] |
| --- | --- | --- | --- | --- | --- | --- | --- | --- | --- |
| 0.26 µg/mL | 100.0% | 96.4% | 84.3% | 70.2% | 36.1% | 10.0 µg/mL | 0 U/mg | 6-O-sulfated, Carboxyl-reduced Dermatan Sulfate Sodium Salt [Example 5] | – |
| – | – | – | – | – | – | – | – | Enoxaparin | 100 U/mg |
| 0.007 µg/mL | 100.0% | 93.4% | 27.4% | 18.0% | – | 0.11 µg/mL | 1.1 U/mg | Persulfated, Carboxyl-reduced Dermatan Sulfate Sodium Salt [Example 4] | – |

| Substance | Estimated IC50 [1] | % Conversion [1, 5] | % Conversion [1, 6] | % Conversion [1, 7] | % Conversion [1, 8] | % Conversion ([1]; conc. of glycosaminoglycan 1.0 μg/ml) | IC50 [2] | Anti-factor Xa activity [3] | Anti-factor Xa activity of the reference standard [4] |
| --- | --- | --- | --- | --- | --- | --- | --- | --- | --- |
| Carboxyl-reduced Dermatan Sulfate Sodium Salt [Example 1] | ~7.9 µg/mL | – | – | – | – | – | – | – | – |
